Patent publication US20240270748A1 (Merck Patent GmbH, priority 2021, published 2024)

Test system: YAP-TEAD interaction
Assay: SK-HEP-1 reporter assay (8xTEAD responsive elements driving NanoLuc luciferase)
Format: cell-based
Conditions: Homo sapiens, SK-HEP1, SK-HEP-1 reporter assay; class symbols
Description: To identify inhibitors of YAP-TEAD interaction, 8×TEAD responsive elements driving the NanoLuc® luciferase gene were stably integrated into SK-HEP-1 cells (ECACC #: 91091816).
For the assay, cells were treated in duplicates with the test compounds in a 10-point dose, with the top concentration starting at 30 μM (final concentration in assay). After a 24 hour incubation at 37° C., 95% rH, and 5% CO2, a luciferase substrate/lysis reagent mix (NanoGlo™, Promega) was added to the cells, allowing the quantification of cellular luciferase activity.
Cell Media: The cells were cultured in the following media: MEM, +10% FBS, +1× GlutaMAX, +1 mM Sodium-Pyruvate, +100 μM Non-essential amino acids, +0.1 mg/ml Hygromycin. The media used for the assay was: MEM (w/o Phenol Red), +10% FBS, +1× GlutaMAX, +1 mM Sodium-Pyruvate, +100 μM Non-essential amino acids, +0.5% Pen/Strep
Reagents: The reagents used are listed below:
Cell culture: The cells were examined using an inverted microscope to check for health and cell density. To dissociate adherent cells, the monolayer of cells was washed once with pre-warmed PBS. After removing the PBS, 3 ml pre-warmed Accutase® was added to a F75 flask, dispersed evenly and the flask was allowed to sit in incubator for ˜4-5 minutes.
When a single cell suspension was obtained, 7 ml of prewarmed growth media was added and resuspended with the cells. The cell suspension was transferred to a sterile 15 ml conical centrifuge tube, and spun for 5 min at 300×g, RT. The supernatant was discarded and the pellet was resuspended in 10 ml of pre-warmed growth media.
The total cell count was determined, and 20 μl of the desired cell number was added to each well of a 384 well plate using a Multidrop Combi. The plates were then incubated for 24 hours at 37° C., 95% rH, and 5% C02.
Compound treatment: 24 hours after seeding, the cells were treated with compounds.
A 1:333 dilution of compounds, diluted in DMSO, was made to get a final concentration of 0.3% DMSO per well. To transfer the compounds to the assay plate, […] was shot from Labcyte low dead volume plates to the cell plates containing 20 μl media/well with the ECHO 555 liquid handling system.
After treatment, the cells were fed with 20 μl fresh pre-warmed assay media using a Multidrop combi.
The assay plates were then incubated for another 24 h at 37° C., 95% rH, and 5% CO2.
Luciferase readout: 24 h after treatment, the plates were taken out of the incubator and were allowed to equilibrate to RT. 30 μl of NanoGlo® reagent was added to the plates in the dark. Plates were shaken for 20 min on a Teleshake (˜1500 rpm) in the dark. The luminescence was then measured using an EnVision microplate reader. The IC50 values were generated using Genedata Screener®.

`Cn1cc2c(n1)c1cc(S(=O)(=O)N3CCC[C@H]3c3cccnc3)ccc1n2-c1ccc(C(F)(F)F)cc1` (single isomer, unassigned) [Example C14] and `Cn1cc2c(n1)c1cc(S(=O)(=O)N3CCC[C@@H]3c3cccnc3)ccc1n2-c1ccc(C(F)(F)F)cc1` [Example C8, 3-[(2R)-1-({2-methyl-4-[4-(trifluoromethyl)phenyl]-2H,4H-pyrazolo[4,3-b]indol-7-yl}sulfonyl)pyrrolidin-2-yl]pyridine] cannot be ordered by IC50: over 10 µM for the first, over 10 µM for the second.

First: Cn1cc2c(n1)c1cc(S(=O)(=O)N3CCC[C@H]3c3cncnc3)ccc1n2-c1ccc(C(F)(F)F)cc1 (single isomer, unassigned) [Example C68]
Second: Cn1cc2c3cc(C4CC(n5ccnn5)=NO4)ccc3n(-c3ccc(C(F)(F)F)cc3)c2n1 (centres unmarked) [Example C37, 1-(5-{2-methyl-8-[4-(trifluoromethyl)phenyl]-2H,8H-pyrazolo[3,4-b]indol-5-yl}-4,5-dihydro-1,2-oxazol-3-yl)-1H-1,2,3-triazole]
The IC50 of the first is lower: 0.1 to 10 µM for the first, over 10 µM for the second. The first is the more potent here.

`COCC[C@H](CO)NC(=O)c1ccc2c(c1)c1c(C)snc1n2-c1ccc(C(F)(F)F)cc1` (single isomer, unassigned) [Example C93] and `C[C@@H](CCN)NC(=O)c1ccc2c(c1)c1cn(C)nc1n2-c1ccc(C(F)(F)F)cc1` [Example C26, N-[(2S)-4-aminobutan-2-yl]-2-methyl-8-[4-(trifluoromethyl)phenyl]-2H,8H-pyrazolo[3,4-b]indole-5-carboxamide] fall in the same range of IC50: 0.1 to 10 µM for the first, 0.1 to 10 µM for the second.

`Cn1cc2c3cc(C(=O)N[C@H](CCO)c4cncs4)ccc3n(-c3ccc(C(F)(F)F)cc3)c2n1` (single isomer, unassigned) [Example C163] and `C[C@H](CCN)NC(=O)c1ccc2c(c1)c1cn(C)nc1n2-c1ccc(C(F)(F)F)cc1` [Example C27, N-[(2R)-4-aminobutan-2-yl]-2-methyl-8-[4-(trifluoromethyl)phenyl]-2H,8H-pyrazolo[3,4-b]indole-5-carboxamide] fall in the same range of IC50: 0.1 to 10 µM for the first, 0.1 to 10 µM for the second.

`CC(NC(=O)c1ccc2c(c1)c1cn(C)nc1n2-c1ccc(C(F)(F)F)cc1)c1cccc(N)n1` (single isomer, unassigned) [Example C186] and `CC(NC(=O)c1ccc2c(c1)c1cn(C)nc1n2-c1ccc(C(F)(F)F)cc1)c1c[nH]nn1` (centres unmarked) [Example B5] fall in the same range of IC50: 0.1 to 10 µM for the first, 0.1 to 10 µM for the second.

First: Cn1cc2c3cc(C(=O)N=[S@@](=O)(CCO)Cc4cccnc4)ccc3n(-c3ccc(C(F)(F)F)cc3)c2n1 (single isomer, unassigned) [Example C190]
Second: Cn1nc2c3cc(C(=O)N=[S@](=O)(CCO)Cc4cccnc4)ccc3n(-c3ccc(C(F)(F)F)cc3)c2n1 (single isomer, unassigned) [Example C235]
The IC50 of the first is higher: 0.1 to 10 µM for the first, 0.01 to 0.1 µM for the second. The second is the more potent here.

First: Cn1nc2c3cc(C(=O)N=[S@@](=O)(CCO)Cc4cccnc4)ccc3n(-c3ccc(C(F)(F)F)cc3)c2n1 (single isomer, unassigned) [Example C238]
Second: Cn1nc2c3cc(C(=O)N=[S@@](=O)(CCO)Cc4ccncc4)ccc3n(-c3ccc(C(F)(F)F)cc3)c2n1 (single isomer, unassigned) [Example C266]
The IC50 of the first is lower: 0.01 to 0.1 µM for the first, 0.1 to 10 µM for the second.

Compared with `Cn1cc2c3cc(NC(=O)CCl)ccc3n(-c3ccc(C(F)(F)F)cc3)c2n1` [Example 23, 2-chloro-N-[2-methyl-8-[4-(trifluoromethyl)phenyl]pyrazolo[3,4-b]indol-5-yl]acetamide], `CNc1ccc2c(c1)c1cn(C)nc1n2-c1ccc(C(F)(F)F)cc1` [Example C32, N,2-dimethyl-8-[4-(trifluoromethyl)phenyl]-2H,8H-pyrazolo[3,4-b]indol-5-amine] is lower in IC50: over 10 µM for the first, 0.1 to 10 µM for the second.

`CC(NC(=O)c1ccc2c(c1)c1cn(C)nc1n2-c1ccc(C(F)(F)F)cc1)c1ncc[nH]1` (centres unmarked) [Example B8] and `CC(CNC(=O)c1ccc2c(c1)c1cn(C)nc1n2-c1ccc(C(F)(F)F)cc1)c1ccc(F)nc1` (centres unmarked) [Example B92] fall in the same range of IC50: 0.1 to 10 µM for the first, 0.1 to 10 µM for the second.

First: Cn1cc2c3cc(N(S(C)(=O)=O)S(C)(=O)=O)ccc3n(-c3ccc(C(F)(F)F)cc3)c2n1 [Example C19, N-methanesulfonyl-N-{2-methyl-8-[4-(trifluoromethyl)phenyl]-2H,8H-pyrazolo[3,4-b]indol-5-yl}methanesulfonamide]
Second: Cn1cc2c3cc(C(=O)OCCS(C)(=N)=O)ccc3n(-c3ccc(C(F)(F)F)cc3)c2n1 (centres unmarked) [Example C29, 2-[imino(methyl)oxo-λ^6-sulfanyl]ethyl 2-methyl-8-[4-(trifluoromethyl)phenyl]-2H,8H-pyrazolo[3,4-b]indole-5-carboxylate]
The IC50 of the first is higher: 0.1 to 10 µM for the first, 0.01 to 0.1 µM for the second.

First: Cn1cc2c3cc(NC(=O)Cc4ccccn4)ccc3n(-c3ccc(C(F)(F)F)cc3)c2n1 [Example C22, N-{2-methyl-8-[4-(trifluoromethyl)-phenyl]-2H,8H-pyrazolo[3,4-b]indol-5-yl}-2-(pyridin-2-yl)acetamide]
Second: Cn1cc2c3cc(NC(=O)Cc4cccnc4)ccc3n(-c3ccc(C(F)(F)F)cc3)c2n1 [Example C23, N-{2-methyl-8-[4-(trifluoromethyl)-phenyl]-2H,8H-pyrazolo[3,4-b]indol-5-yl}-2-(pyridin-3-yl)acetamide]
The IC50 of the first is higher: over 10 µM for the first, 0.1 to 10 µM for the second. The second is the more potent here.

`O=C(O)c1ccc2c(c1)c1cnn(C(F)(F)F)c1n2-c1ccc(C(F)(F)F)cc1` [Example C34, 1-(trifluoromethyl)-8-[4-(trifluoromethyl)phenyl]-1H,8H-pyrazolo[3,4-b]indole-5-carboxylic acid] and `Cn1cc2c3cc(C(=O)N=S(C)(=O)CCN)ccc3n(-c3ccc(C(F)(F)F)cc3)c2n1` (centres unmarked) [Example C36, N-[(2-aminoethyl) (methyl)οxο-λ^6-sulfanylidene]-2-methyl-8-[4-(trifluoromethyl)phenyl]-2H,8H-pyrazolo[3,4-b]indole-5-carboxamide] fall in the same range of IC50: 0.1 to 10 µM for the first, 0.1 to 10 µM for the second.

Same assay, conditions: Homo sapiens, SK-HEP1, SK-HEP-1 reporter assay; n.d. = value not detectable below threshold given in parentheses; ND = not determinable within the entire range

`Cn1cc2c(n1)c1cc(S(=O)(=O)N3C[C@H](O)C[C@@H]3c3ccccc3)ccc1n2-c1ccc(C(F)(F)F)cc1` (single isomer, unassigned) [Example C40] and `Cn1cc2c(n1)c1cc(S(=O)(=O)N3C[C@@H](O)C[C@@H]3c3ccccc3)ccc1n2-c1ccc(C(F)(F)F)cc1` (single isomer, unassigned) [Example C45] cannot be ordered by IC50: over 30 µM for the first, over 1 µM for the second.

`Cn1cc2c(n1)c1cc(S(=O)(=O)N3C[C@H](O)C[C@H]3c3ccccc3)ccc1n2-c1ccc(C(F)(F)F)cc1` (single isomer, unassigned) [Example C46] and `Cn1cc2c(n1)c1cc(S(=O)(=O)N3C[C@@H](O)C[C@H]3c3ccccc3)ccc1n2-c1ccc(C(F)(F)F)cc1` (single isomer, unassigned) [Example C47] cannot be ordered by IC50: over 1 µM for the first, over 10 µM for the second.

`Cn1cc2c(n1)c1cc(S(=O)(=O)N3CCC[C@@H]3c3cncnc3)ccc1n2-c1ccc(C(F)(F)F)cc1` (single isomer, unassigned) [Example C61] and `Cn1nnc2c3cc(S(N)(=O)=O)ccc3n(-c3ccc(C(F)(F)F)cc3)c21` [Example C11, 3-methyl-4-[4-(trifluoromethyl)phenyl]-3H,4H-[1,2,3]triazolo[4,5-b]indole-7-sulfonamide] cannot be ordered by IC50: over 1 µM for the first, over 30 µM for the second.

`C[C@@H](CO)NS(=O)(=O)c1ccc2c(c1)c1nnn(C)c1n2-c1ccc(C(F)(F)F)cc1` [Example C1, N-[(2S)-1-hydroxypropan-2-yl]-3-methyl-4-[4-(trifluoromethyl)phenyl]-3H,4H-[1,2,3]triazolo[4,5-b]indole-7-sulfonamide] and `C[C@H](CO)NS(=O)(=O)c1ccc2c(c1)c1nnn(C)c1n2-c1ccc(C(F)(F)F)cc1` [Example C13, N-[(2R)-1-hydroxypropan-2-yl]-3-methyl-4-[4-(trifluoromethyl)phenyl]-3H,4H-[1,2,3]triazolo[4,5-b]indole-7-sulfonamide] cannot be ordered by IC50: over 30 µM for the first, over 30 µM for the second.

Molecule `Cn1cc2c3cc(NC(=O)Cc4ccncc4)ccc3n(-c3ccc(C(F)(F)F)cc3)c2n1` [Example C33, N-{2-methyl-8-[4-(trifluoromethyl)phenyl]-2H,8H-pyrazolo[3,4-b]indol-5-yl}-2-(pyridin-4-yl)acetamide] has an IC50 of over 10 µM.

Same assay, conditions: SK-HEP-1 reporter assay; class symbols

`Cc1snc2c1c1cc(C(=O)N=S(C)(=O)CCCO)ccc1n2-c1ccc(C(F)(F)F)cc1` (single isomer, unassigned) [Example C103] and `COCCC(CO)NC(=O)c1ccc2c(c1)c1cn(C)nc1n2-c1ccc(C(F)(F)F)cc1` (single isomer, unassigned) [Example C246] fall in the same range of IC50: 0.1 to 10 µM for the first, 0.1 to 10 µM for the second.
